# pIC50: −log10 of the molar value. Like-named read-outs stand apart in the source and are kept apart here.
# Columns and labels:
# HIV-1 IIIB = assay: Anti-HIV-1 activity in MT-4 cell culture (P24 antigen); format: cell-based
# [1] = Solubility of the drugs to be tested; format: physicochemical
# Procedure: During the test, the solution was dissolved by DMSO to suitable concentration, diluted by culture medium, and immediately added into cell culture.
# [2] = Cytotoxicity in MT-4 cells, MTT method; conditions: human
# VSVG/HIV-luc = assay: Pharmacological model of wild type HIV-1 replication (VSVG/HIV-luc, Cell 293); format: cell-based
# HBV DNA = HBV DNA in Hep G2.2.15 cell supernatant, fluorescent quantitative PCR; format: cell-based, hepatitis B virus; conditions: for HBV DNA copy number / Inhibition ratio (%): cell supernatant
# HCV = assay: Anti-HCV activity, HCV-RNA by automatic PCR ELISA; format: cell-based
# Procedure: The HCV replication cells (Avva.5) were cultivated in the Dulbecco's improved Eagle medium containing 10% fetal calf serum and 1 mg/ml G418. 293-Sip-L cells were cultivated in the Dulbecco's improved Eagle medium containing 10% fetal calf serum, 250 μg/ml G418 and 150 μg/ml hygromycin B.
# Using Petri culture dish in a diameter of 60 mm, the cells were cultivated in a positive culture medium containing 100 μl of HCV for 12 hours. Then, the cells were cultivated in the fresh medium containing on HCV and the medium was replaced once everyday. When detecting HCV-RNA 7 days after the cells have been infected with HCV, it is necessary to clean the cells using the Dulbecco's improved Eagle medium in trypsinization and centrifugation methods. The upper layer part cleaned for the second time (used for comparison) and the washed cells were collected for RNA extraction and RT-PCR detection. β-actin mRNA was simultaneously determined for the purpose of comparison.
# The quantitative determination on HCV-RNA is performed in automatic PCR Enzyme-linked immunosorbent assay (ELISA). (Edition 2.0, Roche Diagnostics, Branchburg, N.J.)
# HCV-NA level was determined in automatic PCR ELISA.
# Hep G2.2.15 = assay: Cytotoxicity on Hep G2.2.15 (MTT); format: cell-based, human; conditions: for Cell Survival Rate: MTT
# [3] = Human immunodeficiency virus 1, MT4, 96 h, HIV-1 IIIB in MT-4 cell culture, 4 days, read-out: IC50
# [4] = MT-4 cells infected with HIV-1 IIIB
# [5] = Human immunodeficiency virus 1, IIIB, MT4, 96 h
# [6] = Human immunodeficiency virus 1, VSVG/HIV-luc, Cell 293, read-out: Remarks IC50
# [7] = 0.06 μg/ml in the cell supernatant
# [8] = 0.6 μg/ml in the cell supernatant
# [9] = 6 μg/ml in the cell supernatant
Structure (SMILES),IC50 (HIV-1 IIIB; [3]),Solubility in DMSO [1],Solubility in water [1],"CC50 at 4 days [2, 4]",CC50 at 4 days ([2]; uninfected MT-4 cells),other results
[N-]=[N+]=NC1(CO)OC(n2cc(F)c3c(N)ncnc32)C(F)C1O (stereo not shown) [Compound 50],2300 ng/mL,DMSO-soluble,water-insoluble,28.3 µg/mL,27.9 µg/mL,–
N#CC1(CO)OC(n2cnc3c(N)ncnc32)C(F)C1O (stereo not shown) [Compound 39],1490 ng/mL,DMSO-soluble,water-insoluble,38.3 µg/mL,36.8 µg/mL,–
"Cc1ccnc2c1NC(=O)c1cccnc1N2C1CC1 [NVP, Nevirapine, reference compound]",3.64 ng/mL,–,–,> 12.5 µg/mL,> 12.5 µg/mL,–
CC1(CO)OC(n2cnc3c(O)ncnc32)C(F)C1O (stereo not shown) [Compound 36],127 ng/mL,DMSO-soluble,water-insoluble,35.1 µg/mL,37.5 µg/mL,–
C#CC1(CO)OC(n2cnc3c(F)ncnc32)C(F)C1O (stereo not shown) [Compound 19],–,DMSO-soluble,water-insoluble,43.8 µg/mL,39.8 µg/mL,IC50 (HIV-1 IIIB; [5]): 90 ng/mL; pIC50 (VSVG/HIV-luc; [6]): 6.00
CC1(CO)OC(n2ccc(O)nc2=O)C(F)C1O (stereo not shown) [Compound 9],–,DMSO-soluble,water-insoluble,31.2 µg/mL,30.1 µg/mL,IC50 (HIV-1 IIIB; [5]): 162 ng/mL
[N-]=[N+]=NC1(CO)OC(n2ccc(O)nc2=O)C(F)C1O (stereo not shown) [Compound 17],–,–,–,–,–,"HBV DNA copy number (HBV DNA; 100 μg/L): 19.2 *10^5; Inhibition ratio (%) (HBV DNA; 100 μg/L): 40.6%; HBV DNA copy number (HBV DNA; 500 μg/L): 14.3 *10^5; Inhibition ratio (%) (HBV DNA; 500 μg/L): 52.2%; HBV DNA copy number (HBV DNA; 1000 μg/L): 10.2 *10^5; Inhibition ratio (%) (HBV DNA; 1000 μg/L): 67.9%; Inhibition effect Test 1 (HCV-RNA level) (HCV; [7]): 4.9 × 10^2; Inhibition effect Test 2 (HCV-RNA level) (HCV; [7]): 4.1 × 10^2; Inhibition effect Test 1 (HCV-RNA level) (HCV; [8]): 0.92 × 10^2; Inhibition effect Test 2 (HCV-RNA level) (HCV; [8]): 0.78 × 10^2; Inhibition effect Test 1 (HCV-RNA level) (HCV; [9]): 1.1 × 10^2; Inhibition effect Test 2 (HCV-RNA level) (HCV; [9]): 0.81 × 10^2; Inhibition effect on HCV (in words) (HCV; 6 μg/ml, 0.6 μg/ml or 0.06 μg/ml): relatively strong inhibition effect"
C#CC1(CO)OC(n2ccc(N)nc2=O)C(F)C1O (stereo not shown) [Compound 1],101 ng/mL,DMSO-soluble,water-insoluble,43.6 µg/mL,40.9 µg/mL,pIC50 (VSVG/HIV-luc; [6]): 6.30
[N-]=[N+]=NC1(CO)OC(n2ccc(N)nc2=O)C(F)C1O (stereo not shown) [Compound 15],–,DMSO-soluble,water-insoluble,> 100 µg/mL,> 100 µg/mL,"IC50 (HIV-1 IIIB; [5]): 0.01 ng/mL; pIC50 (VSVG/HIV-luc; Human immunodeficiency virus 1, read-out: Remarks IC50): 8.82; HBV DNA copy number (HBV DNA; 0.016 μg/L): 18.9 *10^5; Inhibition ratio (%) (HBV DNA; 0.016 μg/L): 41.0%; HBV DNA copy number (HBV DNA; 0.08 μg/L): 13.5 *10^5; Inhibition ratio (%) (HBV DNA; 0.08 μg/L): 57.8%; HBV DNA copy number (HBV DNA; 0.4 μg/L): 10.3 *10^5; Inhibition ratio (%) (HBV DNA; 0.4 μg/L): 67.8%; HBV DNA copy number (HBV DNA; 2 μg/L): 5.21 *10^5; Inhibition ratio (%) (HBV DNA; 2 μg/L): 83.7%; EC50 (HBV DNA; Hepatitis B virus, HepG2.2.15, HBV DNA in Hep G2.2.15 supernatant): 0.00019 µg/mL; Effect on HBV DNA copy number (in words) (HBV DNA; after administration, in vitro): significantly reduce; Cell Survival Rate (Hep G2.2.15; 8 μg/ml): 98.7%; Cell Survival Rate (Hep G2.2.15; 40 μg/ml): 96.7%; Cell Survival Rate (Hep G2.2.15; 200 μg/ml): 85.5%; Cell Survival Rate (Hep G2.2.15; 1000 μg/ml): 82.6%; Toxicity (in words) (Hep G2.2.15; in vitro tests): less toxicity"
C#CC1(CO)OC(n2cc(F)c3c(N)ncnc32)C(F)C1O (stereo not shown) [Compound 52],133 ng/mL,DMSO-soluble,water-insoluble,41.3 µg/mL,38.6 µg/mL,–
"Cc1cn([C@H]2C[C@H](N=[N+]=[N-])[C@@H](CO)O2)c(=O)[nH]c1=O [AZT, Zidovudine, reference compound]",0.182 ng/mL,–,–,> 0.625 µg/mL,> 0.625 µg/mL,–
N#CC1(CO)OC(n2cc(F)c3c(O)ncnc32)C(F)C1O (stereo not shown) [Compound 46],131 ng/mL,DMSO-soluble,water-insoluble,48.5 µg/mL,55.4 µg/mL,–

# Reference: patent publication US8835615B2, “2′-fluorine-4′-substituted-nucleoside analogues, preparation methods and uses thereof” (priority 2007, dated 2014)
